Results as given in patent EP4745138A1, “THIO-GLUTARIMIDO ISOINDOLINONE DERIVATIVE, BIFUNCTIONAL PROTEIN DEGRADER CONTAINING SAME, AND USES THEREOF” (Gluetacs Therapeutics (Shanghai) Co., Ltd., priority 2023, dated 2025).
Where two headings read alike, the source gives them in different places.

Assays:
ALK = biological target: T1, ALK (Homo sapiens, UniProt Q96SW2+Q9HC35+Q9UM73); assay: Western blot, target protein degradation in H2228 Cell; assay type: cell-based; conditions: substrate protein remaining %, treated at 500 nM and 50 nM, 24 hours
T1 construct: endogenous in cells; host or cells: H2228
Procedure: (§1) Conventional Western blot assay was performed to evaluate the effects of the compounds of the present disclosure on the expression of target proteins in cells.
(§2) (1) Cell Seeding and Protein Harvesting: The selected cells were processed according to the cell seeding procedure and protein harvesting procedure in Table II-2. Table II-2 Cell Seeding and Protein Harvesting Procedures
(§3) (2) To the collected supernatant, 5X SDS sample loading buffer was added, followed by denaturation at 95°C for 5 minutes. The denatured samples were then separated by SDS-PAGE electrophoresis on a polyacrylamide gel. Proteins were transferred to a nitrocellulose membrane (0.45 µm NC membrane), blocked with blocking buffer at room temperature for 1 hour, and subjected to antibody incubation and development procedures according to the antibody manufacturer's instructions (Cell Signaling Technology).
(§4) Half-Maximal Degradation Concentration value (the drug concentration required for degrading proteins by 50%, abbreviated as DC50) reads method: comparing the grayscale values of Western blot bands from drug-treated samples with those from blank DMSO-treated controls, and identifying the drug concentration range at which the grayscale value is half that of the DMSO-treated control bands.
(§5) DC50 values can be calculated using ImageJ software to measure grayscale values of Western blot bands from drug-treated samples. The concentration-response curve is fitted to estimate the drug concentration corresponding to half the grayscale value.
(§6) Target protein remaining (%) refers to the percentage of target protein remaining in cells after treatment with protein degrader compounds.
(§7) Calculation method for target protein remaining (%): Use ImageJ software to measure grayscale values of Western blot bands from drug (protein degrader)-treated samples. The grayscale value of drug-treated bands is divided by that of internal control protein bands, and the resulting quotient is normalized to obtain the relative percentage of remaining target protein after protein degrader treatment. Target protein degradation rate(%) = 1−target protein remaining(%). [formula]

SR = assay: Tumor cell proliferation inhibition (CellTiter-Meiluncell Luminescent Cell Viability Assay); conditions: Homo sapiens, 96 hours, Table I-1, designed based on the ALK inhibitors, read-out: Inhibitory activity (IC50, nM) SR
Procedure: The tumor cells used herein were cultured in a cell culture medium listed in table 3 at 37°C in an incubator with 5% CO2. Prior to experimentation, all cell lines used were correctly identified by STR profiling, and tested negative for mycoplasma contamination using a mycoplasma detection kit through routine screenings. Table 3. Tumor cells and cell culture medium used in the present disclosure
The IC50 values of the compounds of the present disclosure (including the compounds in Table 1, Table 2, and Examples) were determined using the CellTiter-Meiluncell Luminescent Cell Viability Assay Kit from Dalian Meilun Biotech Co., Ltd. The detailed procedure is as follows: Tumor cells were seeded in 96-well cell culture plates at the densities specified in Table 4. On the following day, the test compounds of the present disclosure were subjected to serial dilution. […] Subsequently, 0.5 µL of the test compound dilution was transferred into the 96-well plate containing the cells, with each well containing 100 µL of cell culture medium. […] Into the 96-well plate, the diluted test compounds and corresponding detection reagents were added, resulting in final test compound concentrations of 500 nM and 10 nM, respectively. The experimental procedure is described below using the diluted 2 µM test compound as an example.
0.5 µL of the aforementioned diluted compound of the present disclosure (including the compounds in Table 1, Table 2, and Examples) was added to the seeded cells in 100 µL of medium, yielding a final test compound concentration of 10 nM. After the cells were treated with the compounds of the present disclosure for a specified period, the cell viability assay reagent was added to the culture medium according to the kit's instructions to determine cell viability. […] All controls were treated using the same procedure as the compounds of the present disclosure. […] Seeding protocol and treatment time for tumor cells

[1] = biological target: T2, human Cereblon WT GST-tagged protein (Homo sapiens, UniProt Q96SW2); assay: CRBN-binding affinity, HTRF (CEREBLON BINDING kit); conditions: for inhibition at 0.5 µM: read-out: Inhibition Rate at 0.5 µM (%); for inhibition at 2 µM: read-out: Inhibition Rate at 2 µM (%); for IC50: CRBN binding, HTRF
T2 construct: purchased CISBIO 64BDCRBNPEH
T2 sequence (Q96SW2 whole entry): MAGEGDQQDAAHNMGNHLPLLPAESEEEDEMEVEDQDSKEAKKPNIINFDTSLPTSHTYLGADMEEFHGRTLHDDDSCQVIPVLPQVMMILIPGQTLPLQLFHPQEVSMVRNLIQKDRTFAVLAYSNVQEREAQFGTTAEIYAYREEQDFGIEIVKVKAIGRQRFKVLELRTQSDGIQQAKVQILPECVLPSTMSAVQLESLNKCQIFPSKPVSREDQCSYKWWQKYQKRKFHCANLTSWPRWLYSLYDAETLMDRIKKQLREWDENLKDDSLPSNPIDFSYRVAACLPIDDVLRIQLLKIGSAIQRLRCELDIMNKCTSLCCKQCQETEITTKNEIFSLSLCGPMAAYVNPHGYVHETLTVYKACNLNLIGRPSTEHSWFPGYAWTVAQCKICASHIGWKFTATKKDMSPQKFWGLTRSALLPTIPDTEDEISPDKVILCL
In short: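 Competitive HTRF binding: compounds diluted in diluent #9 incubated with GST-tagged wild-type human Cereblon, thalidomide-Red tracer and anti-GST Eu antibody. Final compound concentrations 2 µM and 0.5 µM.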

GSPT1 = biological target: T3, GSPT1 (Homo sapiens, UniProt P15170+Q96SW2); assay: Western blot, substrate protein degradation in hPBMC Cell; assay type: cell-based; conditions: substrate protein remaining %, treated at 50 nM and 500 nM, 24 hours
T3 construct: endogenous in cells; host or cells: hPBMC
T3 sequence (P15170 whole entry): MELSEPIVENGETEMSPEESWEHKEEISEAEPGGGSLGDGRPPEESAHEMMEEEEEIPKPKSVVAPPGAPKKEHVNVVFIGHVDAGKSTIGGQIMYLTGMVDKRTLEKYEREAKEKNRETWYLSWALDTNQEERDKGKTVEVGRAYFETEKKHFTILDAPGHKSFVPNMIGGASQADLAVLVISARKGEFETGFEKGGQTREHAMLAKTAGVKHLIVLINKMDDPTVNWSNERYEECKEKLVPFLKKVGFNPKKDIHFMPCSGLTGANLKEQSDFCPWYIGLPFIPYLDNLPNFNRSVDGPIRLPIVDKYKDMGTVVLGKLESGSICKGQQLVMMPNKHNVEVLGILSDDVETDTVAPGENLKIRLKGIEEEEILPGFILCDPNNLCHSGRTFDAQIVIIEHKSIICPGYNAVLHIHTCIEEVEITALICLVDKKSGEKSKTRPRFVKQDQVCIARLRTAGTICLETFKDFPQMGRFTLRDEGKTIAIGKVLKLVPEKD
T3 sequence (Q96SW2 whole entry): as the sequence (Q96SW2 whole entry) above
T3 sequence (Q16531 whole entry partner): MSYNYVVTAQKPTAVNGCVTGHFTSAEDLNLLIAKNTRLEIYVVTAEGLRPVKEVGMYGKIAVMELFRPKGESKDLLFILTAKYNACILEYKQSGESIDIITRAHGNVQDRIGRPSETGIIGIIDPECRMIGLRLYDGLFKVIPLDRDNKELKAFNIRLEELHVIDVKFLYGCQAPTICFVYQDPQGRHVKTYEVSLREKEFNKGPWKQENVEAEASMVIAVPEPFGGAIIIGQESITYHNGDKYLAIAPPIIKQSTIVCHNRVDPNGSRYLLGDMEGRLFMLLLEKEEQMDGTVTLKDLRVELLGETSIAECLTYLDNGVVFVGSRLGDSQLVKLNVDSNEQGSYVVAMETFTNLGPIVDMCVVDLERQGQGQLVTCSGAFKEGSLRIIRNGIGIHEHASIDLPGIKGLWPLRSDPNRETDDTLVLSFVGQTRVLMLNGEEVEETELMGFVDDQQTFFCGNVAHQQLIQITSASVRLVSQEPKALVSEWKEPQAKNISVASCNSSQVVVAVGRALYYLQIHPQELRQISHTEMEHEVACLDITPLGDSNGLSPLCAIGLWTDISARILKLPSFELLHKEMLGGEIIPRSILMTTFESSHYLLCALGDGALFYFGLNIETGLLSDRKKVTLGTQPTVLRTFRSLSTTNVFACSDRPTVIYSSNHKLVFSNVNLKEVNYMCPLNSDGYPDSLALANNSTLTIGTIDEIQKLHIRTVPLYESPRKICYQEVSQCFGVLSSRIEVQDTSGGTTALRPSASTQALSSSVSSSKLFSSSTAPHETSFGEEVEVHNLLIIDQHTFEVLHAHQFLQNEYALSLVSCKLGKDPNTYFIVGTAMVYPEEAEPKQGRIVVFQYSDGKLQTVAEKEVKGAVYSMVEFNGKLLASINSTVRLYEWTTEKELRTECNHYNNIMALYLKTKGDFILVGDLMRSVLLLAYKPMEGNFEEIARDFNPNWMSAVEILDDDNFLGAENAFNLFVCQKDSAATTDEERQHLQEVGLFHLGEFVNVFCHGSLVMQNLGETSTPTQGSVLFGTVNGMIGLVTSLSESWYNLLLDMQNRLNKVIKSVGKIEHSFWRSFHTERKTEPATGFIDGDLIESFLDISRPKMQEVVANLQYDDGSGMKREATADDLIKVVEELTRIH
Procedure: as §1, §2, §3, §4, §5, §6, §7

IKZF2 = biological target: T4, IKZF2 (Homo sapiens, UniProt Q96SW2+Q9UKS7); assay: as above; assay type: cell-based; conditions: substrate protein remaining %, treated at 50 nM and 500 nM, 24 hours
T4 construct: endogenous in cells; host or cells: hPBMC
T4 sequence (Q9UKS7 whole entry): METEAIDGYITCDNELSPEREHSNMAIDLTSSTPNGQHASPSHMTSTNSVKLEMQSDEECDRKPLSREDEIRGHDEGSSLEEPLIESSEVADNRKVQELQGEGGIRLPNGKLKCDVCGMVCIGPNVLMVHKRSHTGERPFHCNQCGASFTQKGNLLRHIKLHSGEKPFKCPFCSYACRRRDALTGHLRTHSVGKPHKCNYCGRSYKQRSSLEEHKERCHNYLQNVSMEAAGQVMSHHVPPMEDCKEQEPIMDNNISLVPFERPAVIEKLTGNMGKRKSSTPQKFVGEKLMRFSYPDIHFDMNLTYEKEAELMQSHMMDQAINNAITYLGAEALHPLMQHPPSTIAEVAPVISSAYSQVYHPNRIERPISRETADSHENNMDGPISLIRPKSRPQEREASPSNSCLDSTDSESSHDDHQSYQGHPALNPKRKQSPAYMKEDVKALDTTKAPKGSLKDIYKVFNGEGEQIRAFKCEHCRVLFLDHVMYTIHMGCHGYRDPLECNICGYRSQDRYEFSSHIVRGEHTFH
T4 sequence (Q96SW2 whole entry): as the sequence (Q96SW2 whole entry) above
T4 sequence (Q16531 whole entry partner): as the sequence (Q16531 whole entry partner) above
Procedure: as §1, §2, §3, §4, §5, §6, §7

CK1α = biological target: T5, CK1α (Homo sapiens, UniProt P48729+Q96SW2); assay: as above; assay type: cell-based; conditions: substrate protein remaining %, treated at 50 nM and 500 nM, 24 hours
T5 construct: endogenous in cells; host or cells: hPBMC
T5 sequence (P48729 whole entry): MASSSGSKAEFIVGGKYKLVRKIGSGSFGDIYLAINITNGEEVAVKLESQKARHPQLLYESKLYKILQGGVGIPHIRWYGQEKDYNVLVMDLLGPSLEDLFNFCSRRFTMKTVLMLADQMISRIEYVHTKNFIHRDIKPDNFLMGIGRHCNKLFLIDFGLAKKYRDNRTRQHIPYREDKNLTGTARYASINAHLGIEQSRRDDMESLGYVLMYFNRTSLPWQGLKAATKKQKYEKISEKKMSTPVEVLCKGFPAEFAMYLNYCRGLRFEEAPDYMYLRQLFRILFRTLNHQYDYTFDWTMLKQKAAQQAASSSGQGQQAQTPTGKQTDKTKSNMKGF
T5 sequence (Q96SW2 whole entry): as the sequence (Q96SW2 whole entry) above
T5 sequence (Q16531 whole entry partner): as the sequence (Q16531 whole entry partner) above
Procedure: as §1, §2, §3, §4, §5, §6, §7

IKZF3 = biological target: T6, IKZF3 (Homo sapiens, UniProt Q96SW2+Q9UKT9); assay: as above; assay type: cell-based; conditions: substrate protein remaining %, treated at 50 nM and 500 nM, 24 hours
T6 construct: endogenous in cells; host or cells: hPBMC
T6 sequence (Q9UKT9 whole entry): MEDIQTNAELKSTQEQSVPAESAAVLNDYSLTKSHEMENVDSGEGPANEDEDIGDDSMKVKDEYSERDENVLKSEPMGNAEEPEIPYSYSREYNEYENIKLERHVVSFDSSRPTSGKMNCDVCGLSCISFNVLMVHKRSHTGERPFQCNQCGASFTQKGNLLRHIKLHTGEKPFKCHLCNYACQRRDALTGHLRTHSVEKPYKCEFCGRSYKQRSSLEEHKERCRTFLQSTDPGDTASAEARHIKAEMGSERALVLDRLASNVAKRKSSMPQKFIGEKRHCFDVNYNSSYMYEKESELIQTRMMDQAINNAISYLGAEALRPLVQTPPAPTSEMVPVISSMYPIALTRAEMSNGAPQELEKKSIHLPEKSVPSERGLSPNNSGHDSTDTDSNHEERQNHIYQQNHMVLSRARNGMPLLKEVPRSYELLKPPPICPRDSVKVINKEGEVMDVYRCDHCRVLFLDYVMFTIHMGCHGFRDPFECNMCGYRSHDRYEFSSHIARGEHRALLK
T6 sequence (Q96SW2 whole entry): as the sequence (Q96SW2 whole entry) above
T6 sequence (Q16531 whole entry partner): as the sequence (Q16531 whole entry partner) above
Procedure: as §1, §2, §3, §4, §5, §6, §7

IKZF1 = biological target: T7, IKZF1 (Homo sapiens, UniProt Q13422+Q96SW2); assay: as above; assay type: cell-based; conditions: substrate protein remaining %, treated at 50 nM and 500 nM, 24 hours
T7 construct: endogenous in cells; host or cells: hPBMC
T7 sequence (Q13422 whole entry): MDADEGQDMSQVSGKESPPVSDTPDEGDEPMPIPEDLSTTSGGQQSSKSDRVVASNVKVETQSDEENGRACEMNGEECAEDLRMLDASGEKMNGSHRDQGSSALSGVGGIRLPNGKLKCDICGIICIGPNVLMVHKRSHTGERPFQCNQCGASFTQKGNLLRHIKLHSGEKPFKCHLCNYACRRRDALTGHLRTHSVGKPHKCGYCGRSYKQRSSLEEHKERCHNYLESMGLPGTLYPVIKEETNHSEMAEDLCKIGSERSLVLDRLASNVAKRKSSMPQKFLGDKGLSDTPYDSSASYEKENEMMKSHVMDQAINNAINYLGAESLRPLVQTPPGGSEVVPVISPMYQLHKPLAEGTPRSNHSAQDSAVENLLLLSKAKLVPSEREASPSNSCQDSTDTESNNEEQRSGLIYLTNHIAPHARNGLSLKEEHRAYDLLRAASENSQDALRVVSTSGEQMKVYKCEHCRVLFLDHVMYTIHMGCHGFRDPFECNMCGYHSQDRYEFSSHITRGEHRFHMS
T7 sequence (Q96SW2 whole entry): as the sequence (Q96SW2 whole entry) above
T7 sequence (Q16531 whole entry partner): as the sequence (Q16531 whole entry partner) above
Procedure: as §1, §2, §3, §4, §5, §6, §7

WEE1 = assay: as above; assay type: cell-based, Human; conditions: substrate protein remaining %, treated at 50 nM and 500 nM, 24 hours
Procedure: as §1, §2, §3, §4, §5, §6, §7

MM.1S = assay: Tumor cell proliferation inhibition (CellTiter-Meiluncell Luminescent Cell Viability Assay); assay type: cell-based; conditions: MM.1S, 96 hours; for inhibition at 0.5 µM / inhibition at 0.01 µM: Homo sapiens, MM1.S; for inhibition at 0.5 µM: 500 nM, read-out: Inhibition Rate at 500 nM (%); for inhibition at 0.01 µM: read-out: Inhibition Rate at 10 nM (%)
In short: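 Following overnight seeding, tumor cells received serial compound dilutions to final levels that included 10 nM and 500 nM. Viability was assessed by luminescence at the end of the specified exposure time. Cultures were kept at 37°C with 5% CO2.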

Tau = assay: Western blot, target protein degradation in H4 Cell; assay type: cell-based; conditions: substrate protein remaining %, treated at 500 nM and 50 nM, 24 hours
Procedure: as §1, §2, §3, §4, §5, §6
as §7, with “Target protein degradation rate(%) = 1−target protein remaining(%). [formula]” left out

AKT = assay: Western blot, target protein degradation in hPBMC Cell; assay type: cell-based, Human; conditions: substrate protein remaining %, treated at 50 nM and 500 nM, 24 hours
Procedure: as §1, §2, §3, §4, §5, §6
as §7, with “Target protein degradation rate(%) = 1−target protein remaining(%). [formula]” left out

[2] = Table I-16, compounds of Formula (II)
[3] = 10 nM, Table I-16, compounds of Formula (II)

## CCc1cc2c(cc1N1CCC(N3CCN(Cc4ccc5c(c4)CN(C4CCC(=O)NC4=O)C5=S)CC3)CC1)C(C)(C)c1[nH]c3cc(C#N)ccc3c1C2=O (stereo not drawn) [GT-05097, 8-(4-(4-((2-(2,6-dioxopiperidin-3-yl)-1-thioxoisoindolin-5-yl)methyl)piperazin-1-yl)piperidin-1-yl)-9-ethyl-6,6-dimethyl-11-oxo-6,11-dihydro-5H-benzo[b]carbazole-3-carbonitrile]
ALK
  Degradation of substrate protein ALK: A (0% ≤ substrate protein remaining % ≤ 80%)
SR
  IC50: 20 to 30 nM
[1]
  inhibition at 0.5 µM: 40 to 53%
  inhibition at 2 µM: 80 to 100%

## O=C1CCC(N2Cc3cc(CO)ccc3C2=S)C(=O)N1 (stereo not drawn) [GT-06977, 3-(5-(hydroxymethyl)-1-thioxoisoindolin-2-yl)piperidine-2,6-dione]
GSPT1
  Degradation of substrate protein GSPT1: B (80%< substrate protein remaining %≤ 100%)
IKZF2
  Degradation of substrate protein IKZF2: B (80%< substrate protein remaining %≤ 100%)
CK1α
  Degradation of substrate protein CK1α: B (80%< substrate protein remaining %≤ 100%)
IKZF3
  Degradation of substrate protein IKZF3: A (0% ≤ substrate protein remaining % ≤ 80%)
IKZF1
  Degradation of substrate protein IKZF1: B (80%< substrate protein remaining %≤ 100%)
WEE1
  Degradation of substrate protein WEE1: B (80%< substrate protein remaining %≤ 100%)
MM.1S; [2]
  inhibition at 0.5 µM: 35 to 40%
MM.1S; [3]
  Inhibition Rate at 10 nM (%): ln6
[1]
  IC50: < 500 nM

## O=C1CCC(N2Cc3c(CO)cccc3C2=S)C(=O)N1 (stereo not drawn) [GT-06981, 3-(4-(hydroxymethyl)-1-thioxoisoindolin-2-yl)piperidine-2,6-dione]
GSPT1
  Degradation of substrate protein GSPT1: B (80%< substrate protein remaining %≤ 100%)
IKZF2
  Degradation of substrate protein IKZF2: B (80%< substrate protein remaining %≤ 100%)
CK1α
  Degradation of substrate protein CK1α: B (80%< substrate protein remaining %≤ 100%)
IKZF3
  Degradation of substrate protein IKZF3: A (0% ≤ substrate protein remaining % ≤ 80%)
IKZF1
  Degradation of substrate protein IKZF1: B (80%< substrate protein remaining %≤ 100%)
WEE1
  Degradation of substrate protein WEE1: B (80%< substrate protein remaining %≤ 100%)
MM.1S; [3]
  inhibition at 0.01 µM: 20 to 30%
MM.1S; [2]
  inhibition at 0.5 µM: 35 to 40%
[1]
  IC50: < 500 nM

## CC(=O)N1CCCN(c2nc(NCCc3cccs3)nc(N3CCN(Cc4ccc5c(c4)CN(C4CCC(=O)NC4=O)C5=S)CC3)n2)CC1 (stereo not drawn) [GT-08867, 3-(5-((4-(4-(4-acetyl-1,4-diazepan-1-yl)-6-((2-(thiophen-2-yl)ethyl)amino)-1,3,5-triazin-2-yl)piperazin-1-yl)methyl)-1-thioxoisoindolin-2-yl)piperidine-2,6-dione]
Tau
  Degradation of substrate protein Tau: A (0% ≤ substrate protein remaining % ≤ 80%)
[1]
  inhibition at 0.5 µM: 53 to 60%
  inhibition at 2 µM: 80 to 100%

## Cn1ncc(Cl)c1-c1cc(C(=O)N[C@H](CNCc2ccc3c(c2)CN(C2CCC(=O)NC2=O)C3=S)Cc2ccc(F)c(F)c2)oc1Cl (stereo partly drawn) [GT-08895, 5-chloro-4-(4-chloro-1-methyl-1H-pyrazol-5-yl)-N-((2S)-1-(3,4-difluorophenyl)-3-(((2-(2,6-dioxopiperidin-3-yl)-1-thioxoisoindolin-5-yl)methyl)amino)propan-2-yl)furan-2-carboxamide]
AKT
  Degradation of substrate protein AKT: A (0% ≤ substrate protein remaining % ≤ 80%)
MM.1S; 10 nM, Table I-14, AKT inhibitors
  inhibition at 0.01 µM: 30 to 40%
MM.1S; Table I-14, AKT inhibitors
  inhibition at 0.5 µM: 50 to 60%
[1]
  inhibition at 0.5 µM: 30 to 40%
  inhibition at 2 µM: 60 to 80%

## Cn1ncc(Cl)c1-c1cc(C(=O)N[C@@H](Cc2ccc(F)c(F)c2)CN2CCN(Cc3ccc4c(c3)CN(C3CCC(=O)NC3=O)C4=S)CC2)oc1Cl (stereo partly drawn) [GT-08896, 5-chloro-4-(4-chloro-1-methyl-1H-pyrazol-5-yl)-N-((2S)-1-(3,4-difluorophenyl)-3-(4-((2-(2,6-dioxopiperidin-3-yl)-1-thioxoisoindolin-5-yl)methyl)piperazin-1-yl)propan-2-yl)furan-2-carboxamide]
AKT
  Degradation of substrate protein AKT: A (0% ≤ substrate protein remaining % ≤ 80%)
[1]
  inhibition at 0.5 µM: 53 to 60%
  inhibition at 2 µM: 80 to 100%

## Cn1ncc(Cl)c1-c1cc(C(=O)N[C@@H](Cc2cccc(F)c2)CN2CCN(Cc3ccc4c(c3)CN(C3CCC(=O)NC3=O)C4=S)CC2)sc1Cl (stereo partly drawn) [GT-08897, 5-chloro-4-(4-chloro-1-methyl-1H-pyrazol-5-yl)-N-((2S)-1-(4-((2-(2,6-dioxopiperidin-3-yl)-1-thioxoisoindolin-5-yl)methyl)piperazin-1-yl)-3-(3-fluorophenyl)propan-2-yl)thiophene-2-carboxamide]
AKT
  Degradation of substrate protein AKT: A (0% ≤ substrate protein remaining % ≤ 80%)
[1]
  inhibition at 0.5 µM: 60 to 80%
  inhibition at 2 µM: 60 to 80%

## O=C1CCC(N2Cc3cc(CN4CCN(c5ccc(-c6ccc7c8cnccc8n(C(F)F)c7c6)cn5)CC4)ccc3C2=S)C(=O)N1 (stereo not drawn) [GT-08979, 3-(5-((4-(5-(5-(difluoromethyl)-5H-pyrido[4,3-b]indol-7-yl)pyridin-2-yl)piperazin-1-yl)methyl)-1-thioxoisoindolin-2-yl)piperidine-2,6-dione]
Tau
  Degradation of substrate protein Tau: A (0% ≤ substrate protein remaining % ≤ 80%)
[1]
  inhibition at 0.5 µM: 53 to 60%
  inhibition at 2 µM: 60 to 80%

## O=C1CCC(N2Cc3cc(CN4CCN(c5ccn6c(n5)nc5ccccc56)CC4)ccc3C2=S)C(=O)N1 (stereo not drawn) [GT-08981, 3-(5-((4-(benzo[4,5]imidazo[1,2-a]pyrimidin-2-yl)piperazin-1-yl)methyl)-1-thioxoisoindolin-2-yl)piperidine-2,6-dione]
Tau
  Degradation of substrate protein Tau: A (0% ≤ substrate protein remaining % ≤ 80%)
[1]
  inhibition at 0.5 µM: 60 to 80%
  inhibition at 2 µM: 80 to 100%
